Measurements: PubChem BioAssay AID248 (DTP/NCI, 2004)
Where “and” joins values, the source holds several entries; their conditions need not be identical. Equal values may be shown once. Inconclusive results and toxic doses are left out. Cut-off read from the data, not from the text of the source: active = T/C of 150% or more; inactive = T/C below 125%.

Tested on: L1210 leukemia ip in BDF1 mice, survival T/C
Assay: NCI In Vivo Anticancer Drug Screen. Data for tumor model L1210 Leukemia (intraperitoneal) in B6D2F1 (BDF1) mice
Conditions: endpoint: mean survival time, higher = longer survival
In short: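 Antitumor effect is assessed in tumor-bearing animals. Survival in the compound arm is compared with a vehicle-dosed control arm and expressed as their quotient.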

[1] = dose: 100.0 mg/kg/injection, schedule: Q04DX003 (ip), vehicle: saline
[2] = dose: 200.0 mg/kg/injection, schedule: Q04DX003 (ip), vehicle: saline
[3] = dose: 400.0 mg/kg/injection, schedule: Q04DX003 (ip), vehicle: saline
[4] = dose: 100.0 mg/kg/injection, schedule: Q01DX001 (ip), vehicle: carboxymethylcellulose (CMC)
[5] = dose: 100.0 mg/kg/injection, schedule: Q04DX002 (ip), vehicle: Klucel (hydroxypropylcellulose) (HPC)
[6] = dose: 200.0 mg/kg/injection, schedule: Q01DX001 (ip), vehicle: carboxymethylcellulose (CMC)
[7] = dose: 200.0 mg/kg/injection, schedule: Q04DX002 (ip), vehicle: Klucel (hydroxypropylcellulose) (HPC)
[8] = dose: 400.0 mg/kg/injection, schedule: Q01DX001 (ip), vehicle: carboxymethylcellulose (CMC)
[9] = dose: 400.0 mg/kg/injection, schedule: Q04DX002 (ip), vehicle: Klucel (hydroxypropylcellulose) (HPC)
[10] = dose: 100.0 mg/kg/injection, schedule: Q04DX003 (ip), vehicle: saline with Tween-80
[11] = dose: 200.0 mg/kg/injection, schedule: Q04DX003 (ip), vehicle: saline with Tween-80
[12] = dose: 50.0 mg/kg/injection, schedule: Q01DX009 (ip), vehicle: saline with Tween-80
[13] = dose: 100.0 mg/kg/injection, schedule: Q01DX009 (ip), vehicle: saline with Tween-80
[14] = dose: 75.0 mg/kg/injection, schedule: Q01DX001 (ip), vehicle: saline
[15] = dose: 150.0 mg/kg/injection, schedule: Q01DX001 (ip), vehicle: saline
[16] = dose: 300.0 mg/kg/injection, schedule: Q01DX001 (ip), vehicle: saline
[17] = dose: 50.0 mg/kg/injection, schedule: Q01DX001 (ip), vehicle: saline
[18] = dose: 100.0 mg/kg/injection, schedule: Q01DX001 (ip), vehicle: saline
[19] = dose: 200.0 mg/kg/injection, schedule: Q01DX001 (ip), vehicle: saline
[20] = dose: 400.0 mg/kg/injection, schedule: Q01DX001 (ip), vehicle: saline
[21] = dose: 25.0 mg/kg/injection, schedule: Q01DX009 (ip), vehicle: saline with Tween-80

Measured: T/C

CCOC(=O)CCC(NC(=O)c1cc([N+](=O)[O-])cc([N+](=O)[O-])c1)C(=O)OCC (stereo not given)
inactive: [1] 100 % of control | [2] 97 % of control | [3] 97 % of control

CSc1ccc(OC(=O)Nc2cccc(Cl)c2)cc1C
inactive: [4] 94 % of control | dose: 100.0 mg/kg/injection, schedule: Q01DX009 (ip), vehicle: carboxymethylcellulose (CMC) 98 % of control | [5] 101 % of control | dose: 100.0 mg/kg/injection, schedule: Q04DX002 (ip), vehicle: carboxymethylcellulose (CMC) 96 % of control and 101 % of control | dose: 100.0 mg/kg/injection, schedule: Q04DX003 (ip), vehicle: carboxymethylcellulose (CMC) 101 % of control | [6] 97 % of control | dose: 200.0 mg/kg/injection, schedule: Q01DX009 (ip), vehicle: carboxymethylcellulose (CMC) 100 % of control and 106 % of control | [7] 95 % of control | dose: 200.0 mg/kg/injection, schedule: Q04DX002 (ip), vehicle: carboxymethylcellulose (CMC) 95 % of control and 88 % of control | dose: 200.0 mg/kg/injection, schedule: Q04DX003 (ip), vehicle: carboxymethylcellulose (CMC) 94 % of control | [8] 87 % of control | dose: 400.0 mg/kg/injection, schedule: Q01DX009 (ip), vehicle: carboxymethylcellulose (CMC) 93 % of control and 87 % of control | [9] 108 % of control | dose: 400.0 mg/kg/injection, schedule: Q04DX002 (ip), vehicle: carboxymethylcellulose (CMC) 95 % of control and 103 % of control | dose: 400.0 mg/kg/injection, schedule: Q04DX003 (ip), vehicle: carboxymethylcellulose (CMC) 92 % of control

Cc1ccc(-c2cc(=S)ss2)cc1
inactive: [4] 100 % of control | [6] 92 % of control | [8] 94 % of control

C[C@]12CC[C@@H]3c4ccc(OC5CCCCO5)cc4CC[C@H]3[C@@H]1CC[C@@H]2O (stereo not given in full)
inactive: dose: 146.0 mg/kg/injection, schedule: Q01DX Z (ip), vehicle: steriod suspending solution 96 % of control | dose: 220.0 mg/kg/injection, schedule: Q01DX Z (ip), vehicle: steriod suspending solution 94 % of control | dose: 330.0 mg/kg/injection, schedule: Q01DX Z (ip), vehicle: steriod suspending solution 98 % of control | dose: 500.0 mg/kg/injection, schedule: Q01DX001 (sc), vehicle: steriod suspending solution 102 % of control | dose: 500.0 mg/kg/injection, schedule: Q01DX Z (ip), vehicle: steriod suspending solution 90 % of control | dose: 600.0 mg/kg/injection, schedule: Q01DX001 (sc), vehicle: steriod suspending solution 100 % of control | dose: 700.0 mg/kg/injection, schedule: Q01DX001 (sc), vehicle: steriod suspending solution 96 % of control | dose: 800.0 mg/kg/injection, schedule: Q01DX001 (sc), vehicle: steriod suspending solution 102 % of control

c1ccc(P2(c3ccccc3)(c3ccccc3)C3C4C5C6C4C2C6C53)cc1 (stereo not given)
inactive: [10] 104 % of control | [11] 109 % of control | dose: 400.0 mg/kg/injection, schedule: Q04DX003 (ip), vehicle: saline with Tween-80 90 % of control

CCN(C(=O)CCl)c1ccccc1C
inactive: [12] 91 % of control | [13] 100 % of control

CC(C)(Cl)CNC(=O)c1ccc([N+](=O)[O-])cc1
inactive: dose: 100.0 mg/kg/injection, schedule: Q01DX009 (ip), vehicle: Klucel (hydroxypropylcellulose) (HPC) 92 % of control | dose: 100.0 mg/kg/injection, schedule: Q04DX003 (ip), vehicle: Klucel (hydroxypropylcellulose) (HPC) 107 % of control | dose: 200.0 mg/kg/injection, schedule: Q01DX009 (ip), vehicle: Klucel (hydroxypropylcellulose) (HPC) 96 % of control | dose: 200.0 mg/kg/injection, schedule: Q04DX003 (ip), vehicle: Klucel (hydroxypropylcellulose) (HPC) 94 % of control | dose: 400.0 mg/kg/injection, schedule: Q01DX009 (ip), vehicle: Klucel (hydroxypropylcellulose) (HPC) 91 % of control | dose: 400.0 mg/kg/injection, schedule: Q04DX003 (ip), vehicle: Klucel (hydroxypropylcellulose) (HPC) 92 % of control

CN(C)CCCNc1nc(-c2cccc(C(Cl)(Cl)Cl)c2)nc(C(Cl)(Cl)Cl)n1
inactive: [14] 95 % of control | [15] 101 % of control | [16] 91 % of control

CN1C(=O)C(c2ccccc2)(c2ccccc2)C(Br)=C1c1ccccc1
inactive: [17] 107 % of control | [18] 91 % of control | [19] 96 % of control | [20] 102 % of control

CCOc1ccc(Nc2cccc3ccccc23)cc1
inactive: [5] 94 % of control | [7] 88 % of control | [9] 98 % of control

CCOc1ccc(Nc2ncnc3nc[nH]c23)cc1CN(CCCl)C(C)CCl (stereo not given)
inactive: dose: 1.0 mg/kg/injection, schedule: Q01DX Z (ip), vehicle: saline 112 % of control | dose: 2.0 mg/kg/injection, schedule: Q01DX Z (ip), vehicle: saline 111 % of control | dose: 4.0 mg/kg/injection, schedule: Q01DX Z (ip), vehicle: saline 97 % of control

COc1ccc(CC(=O)C2C(=O)N(C)c3ccccc32)cc1OC (stereo not given)
inactive: [17] 104 % of control | [18] 102 % of control | [19] 96 % of control | [20] 98 % of control

CN=C(NC)c1ccc(NC(=O)Nc2ccc(NC(=O)Nc3ccc(C(=NC)NC)cc3)cc2)cc1
inactive: dose: 3.94 mg/kg/injection, schedule: Q01DX Z (ip), vehicle: saline 108 % of control | dose: 4.0 mg/kg/injection, schedule: Q01DX Z (ip), vehicle: carboxymethylcellulose (CMC) 107 % of control | dose: 5.9 mg/kg/injection, schedule: Q01DX Z (ip), vehicle: saline 114 % of control | dose: 8.0 mg/kg/injection, schedule: Q01DX Z (ip), vehicle: carboxymethylcellulose (CMC) 121 % of control | dose: 8.86 mg/kg/injection, schedule: Q01DX Z (ip), vehicle: saline 120 % of control | dose: 30.0 mg/kg/injection, schedule: Q01DX Z (ip), vehicle: carboxymethylcellulose (CMC) 101 % of control | dose: 45.0 mg/kg/injection, schedule: Q01DX Z (ip), vehicle: saline 115 % of control

O=C(O)CC(O)c1ccccc1 (stereo not given)
inactive: [14] 109 % of control | [15] 93 % of control | [16] 112 % of control

NN1CC(=O)NC1=O
inactive: [1] 100 % of control | [2] 102 % of control | [3] 100 % of control

O=c1c2cccc3cccc(c32)c2nc3ccccc3n12
inactive: dose: 6.25 mg/kg/injection, schedule: Q01DX009 (ip), vehicle: saline with Tween-80 120 % of control | dose: 12.5 mg/kg/injection, schedule: Q01DX009 (ip), vehicle: saline with Tween-80 116 % of control | [21] 100 % of control | [10] 104 % of control | [11] 103 % of control

CCOC(=O)c1c[nH]c2c(Cl)cccc2c1=O
inactive: [17] 97 % of control | [18] 100 % of control | [19] 94 % of control | [20] 94 % of control

CC(=O)N1CCC(CC[P+](c2ccccc2)(c2ccccc2)c2ccccc2)CC1
inactive: dose: 12.5 mg/kg/injection, schedule: Q04DX003 (ip), vehicle: saline 101 % of control | dose: 25.0 mg/kg/injection, schedule: Q04DX003 (ip), vehicle: saline 96 % of control | dose: 50.0 mg/kg/injection, schedule: Q04DX003 (ip), vehicle: saline 93 % of control

Cc1cccc(N2CCN(P(=S)(c3ccccc3)N3CCN(c4cccc(C)c4)CC3)CC2)c1
inactive: [4] 89 % of control | [6] 95 % of control | [8] 86 % of control

CCOC(=O)c1c(Cl)nc2ccccc2c1Cl
inactive: [18] 92 % of control | [19] 97 % of control | [20] 94 % of control

COc1cc2c(cc1OC)C(CCN1C(=O)CCC1=O)NCC2 (stereo not given)
inactive: [13] 92 % of control | dose: 200.0 mg/kg/injection, schedule: Q01DX009 (ip), vehicle: saline with Tween-80 98 % of control

O=C1C=CCCCC1
inactive: [21] 95 % of control | [12] 101 % of control | [13] 103 % of control | [10] 103 % of control

C#CCCCCC#[C][Hg][C]#CCCCCC#C
inactive: [14] 94 % of control
